These results are taken from ChEMBL document CHEMBL1201862, “PubChem BioAssay data set” (2004).

What all share (assay): NCI tumour cell line growth inhibition, 48 h
In assay [1] the test system is HT-29.
Assay [2] deals with NCI-H522.
In assay [3] the test system is HCT-15.
Assay [4] deals with SK-MEL-2.
The test system of assay [5] is Malme-3M.
The subject of assay [6] is SNB-75.
Assay [7] relates to U-251.
Assay [8] relates to OVCAR-5.
Assay [9] concerns HOP-92.
Assay [10] relates to HL-60.
For assay [11], the system named is COLO 205.
Assay [12] concerns BT-549.
The test system of assay [13] is LOX IMVI.
Assay [14] has as its system NCI-H226.
Assay [15] deals with DU-145.
The test system of assay [16] is CCRF-CEM.
The subject of assay [17] is IGROV-1.
In assay [18] the test system is Hs-578T.

Molecules are shown by their SMILES.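 Compound exposure: 48 hours, 5 concentrations, 96-well plates. GI50: concentration for 50% inhibition of growth.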 Calls of active or inactive are those of the source. No stated cut-off is given here; in the data, active = GI50 up to about 1.1 µM and inactive = higher.

Consider `COc1cc(N(C)C)ccc1C=c1c2ccccc2n2c1cc(-c1ccccc1)[n+]2C`, for which the GI50 in assay [1] is 0.325 µM (active); in assay [2], 0.169 µM (active); in assay [3] it was 0.979 µM; in [4], 0.469 µM (active); in assay [5], 1.02 µM (active); in assay [6] it was 0.33 µM (active). The GI50 in assay [7] was 0.0581 µM (active); in assay [8], 0.566 µM (active); in [9], 0.319 µM (active); in assay [10], 0.149 µM (active); in assay [11], 0.151 µM (active); in [12], 0.34 µM (active). For the same molecule, the GI50 in [13] was 0.308 µM (active); in assay [14] it was 0.518 µM (active); in assay [15] it was 0.323 µM (active); in [16] it was 0.208 µM (active).
Take `CC1CC(C)C2=NOS3=C2C1=NO3` (stereo unspecified): the GI50 was 58.7 µM (inactive) in [17]; > 100 µM (inactive) in [1]; > 100 µM (inactive) in assay [2]; greater than 100 µM in assay [3]; > 100 µM (inactive) in assay [4]; 89.7 µM (inactive) in assay [5]. In addition, the GI50 in assay [6] was 59.8 µM (inactive); in [7], > 100 µM (inactive); in [8], > 100 µM (inactive); in assay [9] it was > 100 µM (inactive); in assay [10] it was > 100 µM (inactive); in [11], 72.6 µM (inactive). Moreover, the GI50 in assay [18], in [13], in assay [14], in [15] and in assay [16] was > 100 µM (inactive) in each case.
Take `CC(C)SC(C)(NC(=O)C1C(C)(C)CCC1(C)C)C(=O)O` (stereo unspecified): the GI50 in assay [3] was greater than 100 µM; in assay [4], > 100 µM (inactive); in assay [6], > 100 µM (inactive); in assay [7], > 100 µM (inactive); in [8], > 100 µM (inactive); in [9], > 100 µM (inactive). In addition, the GI50 in assay [10], in assay [11], in [18], in [13], in assay [14] and in assay [15] was > 100 µM (inactive) each time. In addition, the GI50 in assay [16] is > 100 µM (inactive).
Regarding `Cc1cn(C2OC(CO[Si](C)(C)C(C)(C)C)C(N(C)O[Si](C)(C)C(C)(C)C)C2[Se]c2ccccc2)c(=O)[nH]c1=O` (stereo unspecified), the GI50 is 8.17 µM (inactive) in assay [17]; 3.34 µM (inactive) in [1]; 3.25 µM (inactive) in assay [2]; 4.59 µM in [3]; 7.6 µM (inactive) in [4]; 11.6 µM (inactive) in assay [5]. In addition, the GI50 in [6] is 4.79 µM (inactive); in assay [7] it was 3 µM (inactive); in assay [8], 2.82 µM (inactive); in assay [9] it was 1.9 µM (inactive); in [10] it was > 100 µM (inactive); in assay [11] it was 5.38 µM (inactive). Moreover, the GI50 in [18] is 2.67 µM (inactive); in assay [13], 2.94 µM (inactive); in assay [14], 3.95 µM (inactive); in [15], 8.93 µM (inactive); in [16], 11.8 µM (inactive).
With `COC(=O)C1(Cc2cccc(Cl)c2)CCCCCCN1C(=O)c1ccccc1` (stereo unspecified), the GI50 in assay [17] was 19.1 µM (inactive); in assay [1], 12.9 µM (inactive); in assay [3], 11.5 µM; in assay [5], 12.2 µM (inactive); in assay [6] it was 13 µM (inactive); in assay [7] it was 15.4 µM (inactive). For the same molecule, the GI50 in assay [8] is 15.8 µM (inactive); in [9] it was 14.3 µM (inactive); in assay [10] it was 5.97 µM (inactive); in [11] it was 15.5 µM (inactive); in assay [12] it was 16.7 µM (inactive); in [13], 17.5 µM (inactive). Besides, the GI50 in [14] was 25.1 µM (inactive); in assay [15] it was 19.3 µM (inactive); in assay [16] it was 13.1 µM (inactive).
For `Cc1cc2[nH]c3c(C#N)c(-c4ccccc4)c(/C=N/c4cccc(C(F)(F)F)c4)c(=O)n3c2cc1C`, the GI50 in assay [2] is 39.4 µM (inactive); in assay [3], 74.1 µM; in [4], > 100 µM (inactive); in [5] it was > 100 µM (inactive); in [6], > 100 µM (inactive); in assay [7] it was > 100 µM (inactive). For the same molecule, the GI50 in [8] was > 100 µM (inactive); in assay [11], > 100 µM (inactive); in assay [12] it was 91.6 µM (inactive); in [13], 97.9 µM (inactive); in assay [14] it was > 100 µM (inactive); in assay [16], 72.8 µM (inactive).
As to `CCc1c2c(cc3c1CC1(C3)Cc3cc4c(c(C(=O)OC)c3C1)CCCC4)CCCC2` (stereo unspecified), the GI50 was > 100 µM (inactive) in assay [17]; > 100 µM (inactive) in [1]; > 100 µM (inactive) in [2]; greater than 100 µM in assay [3]; > 100 µM (inactive) in assay [4]; > 100 µM (inactive) in [5]. For the same molecule, the GI50 was > 100 µM (inactive) in [7]; > 100 µM (inactive) in assay [8]; > 100 µM (inactive) in assay [9]; 80.9 µM (inactive) in assay [10]; > 100 µM (inactive) in [11]; 19.2 µM (inactive) in [18]. For the same molecule, the figures for the GI50 in assay [13], in assay [14] and in assay [16] were > 100 µM (inactive), > 100 µM (inactive) and 51.3 µM (inactive), respectively.
For `CC(=O)n1c2ccc(Br)cc2c2nc3ccccc3nc21`, the GI50 is > 100 µM (inactive) in assay [17]; > 100 µM (inactive) in assay [1]; > 100 µM (inactive) in assay [2]; greater than 100 µM in assay [3]; > 100 µM (inactive) in assay [4]; > 100 µM (inactive) in assay [5]. Further, the GI50 in [6], in assay [7], in [8], in [9], in assay [10] and in assay [11] was > 100 µM (inactive) each time. For the same molecule, the GI50 in assay [12], in assay [13], in assay [14], in assay [15] and in assay [16] was > 100 µM (inactive) each time.
Regarding `COc1cc(Br)cc2cc(C3=CSC4=NCCN34)c(=O)oc12`, the GI50 was 17.6 µM (inactive) in assay [17]; 19.1 µM (inactive) in [1]; 17.2 µM in [3]; 20.3 µM (inactive) in assay [4]; 21 µM (inactive) in assay [6]; 18.1 µM (inactive) in [7]. For the same molecule, the GI50 is 23.3 µM (inactive) in assay [8]; 17.1 µM (inactive) in [9]; 29.4 µM (inactive) in assay [10]; 20.7 µM (inactive) in assay [11]; 22 µM (inactive) in assay [12]; 18.2 µM (inactive) in assay [13]. For the same molecule, the values for the GI50 in [15] and in [16] were 17.8 µM (inactive) and 25.8 µM (inactive), respectively.
Turning to `CCCCC1Cc2ccccc2-c2nc3ccccc3n21` (stereo unspecified), the GI50 was 15.8 µM (inactive) in assay [17]; 14.5 µM (inactive) in [1]; 13 µM (inactive) in assay [2]; 12.6 µM in [3]; 16.4 µM (inactive) in assay [4]; 16.4 µM (inactive) in assay [7]. For the same molecule, the GI50 in [8] was 16 µM (inactive); in [9], 16.4 µM (inactive); in [10] it was < 0.01 µM (active); in [18], 17.1 µM (inactive); in assay [13], 16 µM (inactive); in [14], 19.4 µM (inactive). For the same molecule, the GI50 in assay [15] was 18.4 µM (inactive); in assay [16] it was 0.0153 µM (active).
Turning to `CCOP(=O)(C=C=C1CCC2[C@@H]3CCc4cc(OC)ccc4C3CC[C@]12C)OCC` (stereo partly specified), the GI50 in assay [17] is 11.4 µM (inactive); in [1], 3.93 µM (inactive); in [2], 4.16 µM (inactive); in assay [3], 10.9 µM; in [4], 12.9 µM (inactive); in assay [5], 15.6 µM (inactive). Further, the GI50 in [6] was 12.7 µM (inactive); in assay [7] it was 11 µM (inactive); in [8], 17 µM (inactive); in [9] it was 10.1 µM (inactive); in assay [10], 0.0222 µM (active); in assay [11], 10.5 µM (inactive). The GI50 in assay [18] is 20.5 µM (inactive); in assay [13], 9.06 µM (inactive); in assay [14] it was 5.43 µM (inactive); in assay [15] it was 14 µM (inactive).
For `O=C1c2ccccc2C(=O)N1n1c(Cc2ccc([N+](=O)[O-])cc2)n[nH]c1=O`, the GI50 in assay [17] was > 100 µM (inactive); in assay [1] it was > 100 µM (inactive); in [2] it was > 100 µM (inactive); in assay [3] it was greater than 100 µM; in assay [4], 75.2 µM (inactive); in assay [5] it was > 100 µM (inactive). The GI50 in [6], in [7], in assay [8], in assay [9], in [12] and in [14] was > 100 µM (inactive) in each case. For the same molecule, the GI50 in assay [15] is > 100 µM (inactive).
On to `COc1ccc2c(c1)c(CC(=O)O)c(C)n2C(=O)c1ccc(Cl)cc1`, for which the GI50 in assay [17] is > 100 µM (inactive); in assay [1] it was > 100 µM (inactive); in assay [2], 77.1 µM (inactive); in [3] it was greater than 100 µM; in assay [4], 60.3 µM (inactive); in assay [5], 68.7 µM (inactive). Moreover, the GI50 in assay [6] was 39.9 µM (inactive); in [7], 43.1 µM (inactive); in assay [8], > 100 µM (inactive); in [9], 4.42 µM (inactive); in assay [10], 44.3 µM (inactive); in [11] it was > 100 µM (inactive). Also, the GI50 was > 100 µM (inactive) in assay [18]; > 100 µM (inactive) in assay [13]; 98.4 µM (inactive) in [14]; > 100 µM (inactive) in assay [15]; 33.8 µM (inactive) in assay [16].
